# Source: patent publication US10697020B2, “MicroRNA-129 as a biomarker for colorectal cancer” (THE RESEARCH FOUNDATION FOR THE STATE UNIVERSITY OF NEW YORK, priority 2013, dated 2020)
# How the values were obtained:
# [1] = design: species or system NOD/SCID mice; conditions: mouse, in vivo
# Procedure: When solid and palpable tumors with an average volume of 100-150 mm^3 were formed (at day 14), mice were randomly separated into four groups such that each group was treated either with negative control miRNA, miR-129 alone, 5-FU alone or miR-129 and 5-FU together. The miRNAs were complexed with siPORTamine and injected intratumorally while 5-FU (50 μg g^−1) was injected systemically via the tail vein. All injections were provided in 3-day intervals for a total of three times before the tumors were collected at day 24. […] Importantly, despite the overexpression, the expression levels of miR-129 copy number remained within the physiological range (less than 20 copies/cell based on cycle threshold value at 30, which is equal to the expression of miR-129 in normal colon mucosa). Moreover, the control tumor xenografts had no miR-129 expression (cycle threshold value at 35). […]
# The miR-129 specific primer and the internal control RNU44 gene were purchased from Ambion. cDNA synthesis was performed by the High Capacity cDNA Synthesis Kit (Applied Biosystems, CA, USA) with miRNA specific primers. […] Expression level of miR-129 was calculated by the ΔΔCT method based on the internal control RNU44, normalized to the control group and plotted as relative quantification (RQ).
# [2] = test system: HCT116 cells; experiment: Cell cycle analysis (flow cytometry), HCT116; type: cell-based, human; conditions: 36 h after transfection
# Procedure: (§1) HCT116, RKO and SW480 cells were plated in 6-well plates at 2×10^5, 1×10^5 and 1×10^5 per well, respectively. Twenty-four hours after plating, 100 nM of miR-129 precursor (Ambion, Carlsbad, Calif., USA) or siRNA against BCL2 (Dharmacon, Lafayette, Colo., USA) were transfected to the cells with oligofectamine (Invitrogen, Carlsbad, Calif., USA) in accordance with the manufacturer's protocol. Negative miRNA (Ambion) was also transfected as a negative control.
# Thirty-six hours after transfection, cells were harvested and resuspended at 0.5 to 1×10^6 cells/m in modified Krishan buffer supplemented with 0.02 mg/ml RNase H (Invitrogen) and 0.05 mg/ml propidium iodide (Sigma-Aldrich, St. Louis, Mo., USA) (See, Krishan A. The Journal of Cell Biology. 1975; 66(1):188-93). Stained cells were detected by flow cytometry and results were analyzed with Modfit LT™ software. The experiments for cell cycle analysis were performed at least three times.
# [3] = test system: Colon cancer stem cells, i.e., CD133^+HICD44^+HI cells; experiment: Colon cancer stem cell tumor xenograft in NOD/SCID mice; type: in vivo
# Procedure: FIG. 3. miR-129 suppresses colorectal cancer cell growth and induces cell cycle arrest. (a) HCT116, […] and SW480 cells were transfected with either miR-129 or negative miRNA, and cell numbers were measured with WST-1 assay at days 1, 3 and 5. Cell cycle analysis was performed to determine the impact of miR-129. The representative flow cytometry pattern was shown in (b) and the G1/S and G2/S ratios were shown in (c) (n=3). (d) Colon cancer stem cells, i.e., CD133^+HICD44^+HI cells were subcutaneously injected into NOD/SCID mice (1×10^4 cells). Mice were treated with either (top left) control lentiviral GFP vector and lentiviral miR-129 expressing construct (n=5) or (top right) mice were injected with negative miRNA (n=5) or miR-129 precursor (n=5) at 1.25 nmol per injection. Tumor sizes were then analyzed 7 weeks after initial treatment (lentiviral or injection). […] Scale bar: 1 cm. (bottom left) Quantitative analysis of colon cancer stem cells in tumor xenografts transfected with lentiviral miR-129 or control constructs reveal a significant reduction in tumor size. (bottom right) Quantitative analysis of colon cancer stem cells in tumor xenografts transfected with control and miR-129 precursor RNA.
# [4] = test system: BCL2; experiment: Western immunoblot analysis of BCL2 protein after miRNA/siRNA transfection; type: cell-based, human; conditions: HCT116, RKO and SW480 cells; 100 nM transfected; 48 h; vs negative control miRNA
# Procedure: as §1
# Forty-eight hours after transfection, cells were lysed with RIPA buffer (Sigma-Aldrich), and Western immunoblotting was performed using standard procedures. The primary antibodies used for the analysis were mouse anti-human BCL2 antibody (1:200; Thermo Fisher Scientific, Fremont, Calif., USA), rabbit anti-human cleaved caspase-3 antibody (1:200; Cell Signaling Technology, Beverly, Mass., USA), rabbit anti-human cleaved caspase-9 antibody (1:200; Cell Signaling Technology), mouse anti-human E2F3 antibody (1:5000; Millipore, Billerica, Mass., USA), mouse anti-human TS antibody (1:400; Millipore), mouse anti-human GAPDH antibody (1:1000, Santa Cruz Biotechnology, Santa Cruz, Calif., USA) or mouse anti-human α-tubulin antibody (1:1000; Millipore). […] HRP activity was detected with SuperSignal West Pico Chemiluminescent Substrate (Thermo Fisher Scientific) and visualized in an UVP Bioimaging system.
# [5] = test system: HCT116 cells; experiment: Colorectal cancer xenografts (HCT116) in NOD/SCID mice, tumor volume; type: in vivo; conditions: day 24
# Procedure: When solid and palpable tumors with an average volume of 100-150 mm^3 were formed (at day 14), mice were randomly separated into four groups such that each group was treated either with negative control miRNA, miR-129 alone, 5-FU alone or miR-129 and 5-FU together. The miRNAs were complexed with siPORTamine and injected intratumorally while 5-FU (50 μg g^−1) was injected systemically via the tail vein. All injections were provided in 3-day intervals for a total of three times before the tumors were collected at day 24. […] Importantly, despite the overexpression, the expression levels of miR-129 copy number remained within the physiological range (less than 20 copies/cell based on cycle threshold value at 30, which is equal to the expression of miR-129 in normal colon mucosa). Moreover, the control tumor xenografts had no miR-129 expression (cycle threshold value at 35).
# Ten-twelve week old NOD/SCID mice (Jackson Laboratories, Bar Harbor, […]., USA) were used for tumor implantation. All animal procedures were approved by the Stony Brook University Institutional Animal Care and Use Committee (IACUC). The tumor implantation and miRNA injection protocol was modified from Trang et al. (see Trang P., et al., Oncogene. (2010) 29(11):1580-7). The mice were anesthetized by isoflurane inhalation. HCT116 cells were subcutaneously injected into the lower back areas of the mice using 2.5×10^6 cells in 100 μl McCoy's 5A with 50% matrigel (BD Biosciences). The tumor size was measured using a caliper and tumor volume was calculated using the formula V=length×width^2/2. When tumor volumes reach 100-150 mm^3 at day 14 post-injection, the mice were randomly assigned into four groups. For the first two groups, 10 μM negative miRNA or miR-129 precursor (Ambion) complexed with 1.6 μl siPORTAmine (Ambion) in 50 μl McCoy's 5A was injected into the tumors every three days. For the third group, 5-FU (Sigma-Aldrich) was injected at 50 μg/g via the tail vein every three days. Finally, for the last group, both miR-129 precursor and 5-FU were injected as described above. The mice were euthanized on day 24 post-injection by CO2 inhalation, and tumors were dissected out for RNA isolation.
substance,measurement,setting,value
miR-129: nucleic acid having a sequence of CUUUUUGCGGUCUGGGCUUGC (SEQ ID NO. 1); miR-129 precursor from Ambion used (chemistry not given here; listed as Homo sapiens),miR-129 copy number in injected tumors,[1],less than 20 copies/cell
same,cell cycle arrest (G1/S and G2/S ratios),[2],reached significance at G2 checkpoint
same,tumor size,"[3]; delivery via lentiviral miR-129 expressing construct vs control lentiviral GFP vector, 7 weeks",reduces tumor size significantly
same,tumor size,"[3]; injection of miR-129 precursor at 1.25 nmol per injection vs negative miRNA, 7 weeks after initial treatment",reduces tumor size significantly
same,BCL2 protein expression,[4],reduced the BCL2 protein expression
same,inhibition of tumor growth (in words),"[5]; HCT116 xenograft, compared with negative miRNA or single agents",sufficiently reduced tumor size
same,"average tumor volume, % of the control group","[5]; treated days 14, 17, 20, miRNA intratumoral with siPORTamine, 5-FU 50 μg/g tail vein, control negative miRNA",~84.4%
